# Data published in PMC5852498, “Lactomycins A–C, Dephosphorylated Phoslactomycin Derivatives That Inhibit Cathepsin B, from the Marine-Derived Streptomyces sp. ACT232” (Marine Drugs, 2018).
# Like-named read-outs stand apart in the source and are kept apart here.
# Biological target: T1, cathepsin B (Bos taurus, UniProt P07688)
# T1 construct: gene CTSB; cathepsin B from bovine spleen (Sigma C6286)
# Assay: fluorogenic enzyme assay with Z-Arg-Arg-AMC, pH […] °C
# Assay type: biochemical
SMILES,IC50 (read-out: IC50) [nM],IC50 [nM]
"CC[C@H]1C=CC(=O)O[C@H]1/C=C/[C@](O)(CCO)[C@H](O)C[C@@H](O)/C=C\C=C/[C@@H]1CCC[C@H](O)C1 [compound 1, Lactomycin A]",4500,–
"CC[C@H]1C=CC(=O)O[C@H]1/C=C/[C@](O)(CCN)[C@H](O)C[C@@H](O)/C=C\C=C/[C@@H]1CCC[C@H](O)C1 [compound 2, Lactomycin B]",800,–
"CC[C@H]1C=CC(=O)O[C@H]1/C=C/[C@@](C)(O)[C@H](O)C[C@@H](O)/C=C\C=C/[C@@H]1CCC[C@H](O)C1 [compound 3, Lactomycin C]",–,1600
